PMC8654043 (Chemical Science, 2021)

Legend:
caspase-9 = biological target: T1, caspase-9 (Homo sapiens, UniProt P55211); assay type: biochemical
T1 sequence (P55211 1-416): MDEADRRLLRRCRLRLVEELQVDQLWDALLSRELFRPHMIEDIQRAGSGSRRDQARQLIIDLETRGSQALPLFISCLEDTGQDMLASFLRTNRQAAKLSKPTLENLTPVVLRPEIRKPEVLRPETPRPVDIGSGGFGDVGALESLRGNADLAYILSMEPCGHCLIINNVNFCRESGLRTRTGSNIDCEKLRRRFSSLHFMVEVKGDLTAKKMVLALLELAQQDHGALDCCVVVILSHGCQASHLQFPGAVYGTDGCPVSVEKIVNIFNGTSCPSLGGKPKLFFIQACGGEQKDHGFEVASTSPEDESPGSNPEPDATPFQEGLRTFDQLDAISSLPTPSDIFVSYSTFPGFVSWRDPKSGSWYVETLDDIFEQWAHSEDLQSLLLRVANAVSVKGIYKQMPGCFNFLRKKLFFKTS

caspase-8 = caspase-8 (Homo sapiens, UniProt Q14790); assay type: biochemical
Chain of caspase-8 (Q14790 217-374): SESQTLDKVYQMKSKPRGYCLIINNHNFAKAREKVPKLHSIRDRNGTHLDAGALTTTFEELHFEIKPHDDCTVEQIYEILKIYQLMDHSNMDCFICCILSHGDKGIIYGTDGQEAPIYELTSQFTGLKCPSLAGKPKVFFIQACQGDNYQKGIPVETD
Chain of caspase-8 (Q14790 385-479): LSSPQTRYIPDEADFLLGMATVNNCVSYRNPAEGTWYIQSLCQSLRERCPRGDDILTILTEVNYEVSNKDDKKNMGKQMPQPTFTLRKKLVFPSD

- IC50 (caspase-9): 310 nM
- IC50 (caspase-8): 280 nM
Structure (SMILES): CC(C)[C@H](NC(=O)c1ccc2ccccc2n1)C(=O)N[C@@H](CC(=O)O)C(=O)COc1c(F)cccc1F [Q-VD-OPh]
